For experiment [1], the system named is recombinant P. falciparum M1 aminopeptidase (rPfA-M1). Description: Enzymatic analysis: aminopeptidase activity with fluorogenic peptide substrates (NHMec release) and inhibition. The format is biochemical, Plasmodium falciparum. Particulars: for Km / kcat: substrate of rPfA-M1, pH 7.5. How it is done:
Aminopeptidase activity was determined by measuring the release of the fluorogenic leaving group, 7-amino-4-methyl-coumarin (NHMec) from the fluorogenic peptide substrates H-Leu-NHMec, H-Ala-NHMec, H-Arg-NHMec, H-Met-NHMec, H-Phe-NHMec, H-Gly-NHMec, H-Val-NHMec, H-Ile-NHMec and H-Pro-NHMec. Reactions were carried out in 96-well microtitre plates (200 μl total volume, 30 min, 37° C.) using a spectrofluorimeter (Bio-Tek KC4) with excitation at 370 nm and emission at 460 nm. […] […] Inhibition experiments were carried out in the presence of substrate.

A further experiment deals with T1, PfA-M17 (Plasmodium falciparum, UniProt Q8IL11).
T1 sequence (Q8IL11 84-605 limits assumed): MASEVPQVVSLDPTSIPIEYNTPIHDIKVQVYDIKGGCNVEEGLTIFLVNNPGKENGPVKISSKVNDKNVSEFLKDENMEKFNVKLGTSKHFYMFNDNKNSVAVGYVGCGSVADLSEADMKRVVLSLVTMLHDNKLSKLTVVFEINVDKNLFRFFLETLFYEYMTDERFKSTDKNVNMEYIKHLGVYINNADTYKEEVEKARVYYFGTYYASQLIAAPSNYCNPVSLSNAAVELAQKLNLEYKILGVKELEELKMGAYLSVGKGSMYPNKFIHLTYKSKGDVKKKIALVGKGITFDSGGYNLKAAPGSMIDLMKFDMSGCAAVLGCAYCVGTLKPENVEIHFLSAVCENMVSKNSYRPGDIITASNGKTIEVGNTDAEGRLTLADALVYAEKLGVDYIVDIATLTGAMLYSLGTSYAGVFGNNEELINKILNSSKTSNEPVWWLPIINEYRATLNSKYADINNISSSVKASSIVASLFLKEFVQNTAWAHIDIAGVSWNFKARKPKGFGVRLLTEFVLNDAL
Particulars: cited from earlier work.

A further experiment deals with P. c. chabaudi. Particulars: cited from earlier work.

Broadly, the Km is the concentration of substrate that gives half-maximal velocity. Broadly, the kcat is the maximal rate divided by the concentration of active sites. One may read the Ki as the equilibrium dissociation constant of an inhibitor or competing ligand from its target.

On to H-Gly-NHmec, for which, in experiment [1], the Michaelis-Menten constant (Km) was determined as 349 µM and the catalytic constant (kcat) worked out at 0.116 s⁻¹.
For `CCC(C)C(N)C(=O)Nc1ccc2c(C)cc(=O)oc2c1` (stereo not shown) [H-Ile-NHmec], in that order: 1710 µM and 0.040 s⁻¹.
On the same counts, the results for H-Arg-NHmec are 717 µM and 1.07 s⁻¹.
On the same counts, the results for `Cc1cc(=O)oc2cc(NC(=O)[C@@H]3CCCN3)ccc12` [H-Pro-NHmec] are 734 µM and 0.0032 s⁻¹.
For the compound `NC(CCc1ccccc1)P(=O)(O)CC(Cc1ccccc1)C(=O)O` (stereo not shown) [Co4, hPheP[CH2]Phe], the Ki in experiment [1] (inhibition of rPfA-M1, in the presence of substrate) came out at 78.3 nM. For the same compound, at PfA-M17, the “inhibition of PfA-M17” value was “inhibits”. In addition, in the experiment on P. c. chabaudi, the “reduction of murine infection of P. c. chabaudi compared to controls” value is reported as 92%.
Consider H-Leu-NHmec, for which, in experiment [1], the Km worked out at 330 µM and the turnover number (kcat) was 1.52 s⁻¹.
For `Cc1cc(=O)oc2cc(NC(=O)[C@@H](N)C(C)C)ccc12` [H-Val-NHmec], in that order: 1070 µM and 0.036 s⁻¹.
On the same counts, the results for H-Phe-NHmec are 195 µM and 0.18 s⁻¹.
For H-Ala-NHmec, in experiment [1], the Km came out at 889 µM and the kcat amounted to 2.04 s⁻¹.

The values above are taken from US20110311511A1, “CRYSTAL STRUCTURE OF PfA-M1 AND THE PfA-M1 Co4 COMPLEX” (priority 2008, published 2011).
